Reference: patent US6656459B2, “Compositions of non-ionic block copolymers to treat autoimmune and inflammatory diseases, and to reduce graft/implantation, and methods of use thereof” (priority 2000, dated 2003)

Test system: Collagen-immunized DBA/I mice
Assay: collagen-induced arthritis (CIA), frequency and severity of RA symptoms
Format: in vivo
Description: The anti-RA efficacy of SP1018R (200 μl of F127 and L61 in a ratio of 8:1 at a concentration of 2.25% ) was compared to that of MTX that was given at a human equivalent dose (0.1 mg/kg i.v.), both drugs were given on day 30 and day 37 after the first immunization with collagen. For induction of severe CIA, mice were primed with 500 μl pristane and immunized at day 14 and 21 by administration of 100 μg colagen type II in Freund's complete adjuvant. The control (placebo) and the treated animals were evaluated for RA severity. RA was graded semi-quantitatively on a scale of 0-4 for each paw: 0=no changes; 0.5=significant swelling and redness on one digit; 1=swelling and erythema of 2 digits; 2=mild swelling and erythema of the limb or swelling of more than 2 digits; 3=marked swelling and erythema of the limb; and 4=maximal swelling and redness of the limb and later, ankylosis. […] Rev. Immunol.
The data shown below represent the maximal frequency (%) of animals having developed symptoms of RA and the frequency of animals still having the symptoms of RA at the end of the study. All Pluronics used in all examples were purchased from BASF Co.
Frequency of RA development at various time points during the course of RA development

[1] = Study NG256, given twice (2X; day 30 and day 37)

CN(Cc1cnc2nc(N)nc(N)c2n1)c1ccc(C(=O)N[C@@H](CCC(=O)O)C(=O)O)cc1 [MTX, methotrexate]
RA severity, clinical disease symptoms (scale of 0-4 for each paw) (SP1018R 200 μl, MTX 0.1 mg/kg i.v., day 30 and day 37 after first immunization): slight therapeutic effect | frequency of animals still having the symptoms of RA at the end of the study [1]: 100% | maximal frequency (%) of animals having developed symptoms of RA [1]: MTX—100%
